Test results: patent publication US8389679B2, “Targeted antimicrobial moieties” (priority 2009, dated 2013)
Where a SMILES comes first, the peptide text is derived from it. Where no end group is shown, it is not given here.

Legend:
S. mutans [1] = assay: Microbial population shift assay (mixed planktonic culture); format: cell-based, Streptococcus mutans; conditions: 10 μM peptide, 24 h, FIG. 16
Description: (§1) FIG. 16 illustrates the selective activity of dual-targeted and single-targeted MH-STAMPs in mixed culture. […] After incubation, cfu/mL of remaining constituent species were quantitated after plating to selective media. * indicates under 200 surviving cfu/mL recovered.
(§2) Peptide (10 μM) or mock-treatment (1×PBS) was then added and samples were incubated at 37° C. for 24 h under anaerobic conditions (80% N2, 15% CO2, 5% H2). […] Plates were then incubated 37° C. under aerobic conditions (TH plates were incubated anaerobically) and colonies counted after 24 h to determine survivors. […] Gram stains and direct microscopic observation (from select isolated colonies) were undertaken to confirm species identity (data not shown). The detection limit of the assay was 200 cfu/mL.

S. mutans [2] = assay: Post-antibiotic effect assay (growth retardation in monoculture); conditions: peptide for 10 min, then fresh medium, FIG. 15A
Description: (§3) Agent was then removed and fresh media returned. Culture recovery was measured over time (OD600). Plots represent the average of at least 3 independent experiments with standard deviations.
(§4) The activity and selectivity of MH-STAMPs after a 10 min incubation was determined by growth retardation experiments against targeted and untargeted bacteria in monocultures, as described previously [10, 11]. Cells from overnight cultures were diluted to ˜5×10^6 cfu/mL in MH (or TH with 1% sucrose for S. mutans), normalized by OD600 0.05-0.1 and seeded to 96-well plates. Cultures were then grown under the appropriate conditions for 2 h (3 h for S. mutans) prior to the addition of peptides for 10 min. Plates were then centrifuged at 3000×g for 5 min, the supernatants discarded, fresh medium returned (MH or TH without sucrose for S. mutans), and incubation resumed. Bacterial growth after treatment was then monitored over time by OD600.

S. epidermidis [3] = assay: Microbial population shift assay (mixed planktonic culture); format: cell-based, Staphylococcus epidermidis; conditions: 10 μM peptide, 24 h, FIG. 16
Description: as §1, §2

E. coli [4] = assay: as above; format: cell-based, Escherichia coli; conditions: 10 μM peptide, 24 h, FIG. 16
Description: as §1, §2

P. aeruginosa [5] = assay: as above; format: cell-based, Pseudomonas aeruginosa; conditions: 10 μM peptide, 24 h, FIG. 16
Description: as §1, §2

bacteria = assay: Bacterial binding of blank peptide (data not shown)
S. mutans [6] = assay: Growth phenotype or other activity induced by peptide (Table 9); format: cell-based
S. aureus = assay: Post-antibiotic effect assay (growth retardation in monoculture); format: cell-based, Staphylococcus aureus; conditions: peptide for 10 min, then fresh medium, FIG. 15D
E. coli [7] = assay: as above; format: cell-based, Escherichia coli; conditions: peptide for 10 min, then fresh medium, FIG. 15E
P. aeruginosa [8] = assay: as above; conditions: peptide for 10 min, then fresh medium, FIG. 15B
Description: as §3, §4

S. epidermidis [9] = assay: as above; conditions: peptide for 10 min, then fresh medium, FIG. 15C
Description: as §3, §4

Molecule	recoverable S. mutans cfu/mL in mixed culture (in words) (S. mutans [1])	S. mutans growth after treatment (culture recovery, OD600) (S. mutans [2])	recoverable S. epidermidis cfu/mL in mixed culture (in words) (S. epidermidis [3])	recoverable E. coli cfu/mL in mixed culture (in words) (E. coli [4])	recoverable P. aeruginosa cfu/mL in mixed culture (in words) (P. aeruginosa [5])	bacterial binding (bacteria)	Organism, effect (S. mutans) (S. mutans [6])	S. aureus growth after treatment (culture recovery, OD600) (S. aureus)	E. coli growth after treatment (culture recovery, OD600) (E. coli [7])	P. aeruginosa growth after treatment (culture recovery, OD600) (P. aeruginosa [8])	S. epidermidis growth after treatment (culture recovery, OD600) (S. epidermidis [9])
CC[C@H](C)[C@H](NC(=O)[C@H](Cc1ccccc1)NC(=O)CCCCCCCNC(=O)[C@H](CCCCNC(=O)CNC(=O)CNC(=O)CNC(=O)[C@H](Cc1c[nH]cn1)NC(=O)[C@H](CCCCN)NC(=O)[C@H](CCCNC(=N)N)NC(=O)[C@H](Cc1c[nH]cn1)NC(=O)[C@H](CCCCN)NC(=O)[C@H](CCCNC(=N)N)NC(=O)[C@H](Cc1c[nH]cn1)NC(=O)[C@H](CCCCN)NC(=O)[C@H](CCCNC(=N)N)NC(=O)[C@H](Cc1c[nH]cn1)NC(=O)[C@H](CCCCN)NC(=O)[C@@H](N)CCCCN)NC(=O)CNC(=O)CNC(=O)CNC(=O)[C@H](C)NC(=O)[C@H](CCC(=O)O)NC(=O)[C@H](CC(N)=O)NC(=O)[C@H](C)NC(=O)[C@H](C)NC(=O)[C@H](CC(=O)O)NC(C)=O)C(=O)N[C@@H](CCCNC(=N)N)C(=O)N[C@@H](CCCCN)C(=O)N[C@@H](Cc1ccccc1)C(=O)N[C@@H](CC(C)C)C(=O)N[C@@H](CCCCN)C(=O)N[C@@H](CCCCN)C(=O)N[C@@H](Cc1c[nH]c2ccccc12)C(=O)N[C@@H](CC(C)C)C(=O)N[C@@H](CC(C)C)C(N)=O [BL(KH)-20] (HELM PEPTIDE1{[ac].D.A.A.N.E.A.G.G.G.K.[O=C(CCCCCCCN[*:1])[*:2]].F.I.R.K.F.L.K.K.W.L.L.[am]}|PEPTIDE2{K.K.H.R.K.H.R.K.H.R.K.H.G.G.G}$PEPTIDE1,PEPTIDE2,11:R3-15:R2$$$V2.0)	higher than input cfu/mL	not altered	unchanged numbers	unchanged numbers	not observed						
DAANEA-GGG (DAANEAGGG; synthetic BL-1 peptide with no bacterial binding)						no bacterial binding					
EIPIQLANDLANYYDISLDSIFFW [G-4]							Biofilm structure				
FIRKFLKKWLL-NH2 [BD2.20, FIRKFLKKWLL]	significant loss of recoverable cfu/mL	robust antimicrobial activity	significant loss of recoverable cfu/mL	significant loss of recoverable cfu/mL	significant loss of recoverable cfu/mL			inhibited	inhibited	robust antimicrobial activity	inhibited
